Assay results reported in patent publication US9353082B2, “Pharmaceutical compounds” (BIAL—PORTELA & CA, S.A., priority 2008, dated 2016).

What was measured:
FAAH [1] = molecular target: T1, FAAH (Mus musculus, UniProt O08914); experiment: In vivo FAAH inhibition after oral dosing, remaining activity in brain homogenate (BRh, central nervous tissue); design: species or system NMRI mice; conditions: brain homogenate, low value = strong inhibitor; for In Vivo BRh 3 mg · kg · 8 h (remaining FAAH activity): 3 mg/kg oral; for In Vivo BRh 3 mg·kg 8 h (remaining FAAH activity, % of control): 8 h after dosing
T1 construct: A fragment of liver, left lung lobe and brain without cerebellum were removed; from tissue; host or cells: male NMRI mice; brain (without cerebellum) and liver homogenates
T1 sequence (O08914 1-579): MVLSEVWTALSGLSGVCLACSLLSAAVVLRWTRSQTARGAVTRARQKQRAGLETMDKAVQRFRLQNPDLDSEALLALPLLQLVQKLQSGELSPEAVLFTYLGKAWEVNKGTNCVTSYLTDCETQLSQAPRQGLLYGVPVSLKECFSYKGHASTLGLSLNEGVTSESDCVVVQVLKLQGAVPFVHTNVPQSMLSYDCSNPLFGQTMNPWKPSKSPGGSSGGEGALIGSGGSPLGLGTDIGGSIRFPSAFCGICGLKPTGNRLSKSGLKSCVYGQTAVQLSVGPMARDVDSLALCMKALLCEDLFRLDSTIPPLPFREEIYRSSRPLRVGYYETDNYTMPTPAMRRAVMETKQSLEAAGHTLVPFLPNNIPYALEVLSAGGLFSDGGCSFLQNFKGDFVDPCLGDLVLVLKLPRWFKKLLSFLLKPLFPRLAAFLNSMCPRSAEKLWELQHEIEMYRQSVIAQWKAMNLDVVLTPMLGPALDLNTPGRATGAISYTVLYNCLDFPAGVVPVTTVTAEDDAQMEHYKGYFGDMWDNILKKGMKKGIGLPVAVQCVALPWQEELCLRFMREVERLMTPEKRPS
Procedure, shortened: (§1)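 Male NMRI mice, fasted overnight, got 30 or 3 mg/kg compound orally (0.5% CMC suspension or water) and were compared with vehicle controls. Brain (no cerebellum) and liver homogenates were incubated with 2 μM AEA plus 5 nM 3H-AEA at 37 °C, 10 min for brain and 7 min for liver. Remaining FAAH activity is % of vehicle after blank subtraction.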

FAAH [2] = molecular target: T1, FAAH; experiment: In vivo FAAH inhibition after oral dosing, remaining activity in liver homogenate (LVh, peripheral tissue); design: species or system NMRI mice; conditions: liver homogenate, low value = strong inhibitor; for In Vivo LVh 3 mg · kg · 8 h (remaining FAAH activity): 3 mg/kg oral; for In Vivo LVh 3 mg·kg 8 h (remaining FAAH activity, % of control): 8 h after dosing
Procedure, shortened: as §1

In Vivo BRh 3 mg·kg 8 h (remaining FAAH activity, % of control) (FAAH [1]) | In Vivo LVh 3 mg·kg 8 h (remaining FAAH activity, % of control) (FAAH [2]) | SMILES | In Vivo BRh 3 mg · kg · 8 h (remaining FAAH activity) (FAAH [1]) | In Vivo LVh 3 mg · kg · 8 h (remaining FAAH activity) (FAAH [2])
 |  | CN(C(=O)n1cnc(-c2cccc(-c3cccc(C(N)=O)c3)c2)c1)C1CCN(Cc2ccccc2)CC1 [Compound 550, N-(1-benzylpiperidin-4-yl)-4-(3′-carbamoylbiphenyl-3-yl)-N-methyl-1H-imidazole-1-carboxamide] | 94.3 % of control | 5.7 % of control
 |  | CN(C(=O)n1cnc(-c2cccc(NC(=N)N)c2)c1)C1CCCCC1.Cl [Compound 553, N-cyclohexyl-4-(3-guanidinophenyl)-N-methyl-1H-imidazole-1-carboxamide hydrochloride] | 72.3 % of control | 15.4 % of control
6.5 % of control | 9.4 % of control | COc1ccc(-c2cn(C(=O)N3COCC3(C)C)cn2)cc1N [Compound no. 356, (4-(3-amino-4-methoxyphenyl)-1H-imidazol-1-yl)(4,4-dimethyloxazolidin-3-yl)methanone] |  | 
28.1 % of control | 10.6 % of control | Br.CN(C(=O)n1cnc(-c2ccc(O)c([N+](=O)[O-])c2)c1)C1CCN(Cc2ccccc2)CC1 [Compound no. 457, N-(1-benzylpiperidin-4-yl)-4-(4-hydroxy-3-nitrophenyl)-N-methyl-1H-imidazole-1-carboxamide hydrobromide] |  | 
1.4 % of control | 1.2 % of control | COc1cc(-c2cn(C(=O)N(C)C3CCCC3)cn2)ccc1F [Compound 321, N-cyclopentyl-4-(4-fluoro-3-methoxyphenyl)-N-methyl-1H-imidazole-1-carboxamide] |  | 
 |  | COc1ccc(-c2cn(C(=O)N(C)C3CCCCC3)cn2)cc1/C(N)=N\O [Compound no. 507, (E)—N-cyclohexyl-4-(3-(N′-hydroxycarbamimidoyl)-4-methoxyphenyl)-N-methyl-1H-imidazole-1-carboxamide] | 101.7 % of control | 34 % of control
1.4 % of control | 0.7 % of control | CN(C(=O)n1cnc(-c2ccc(O)cc2)c1)C1CCN(C(=O)OC(C)(C)C)CC1 [Compound no. 469, tert-butyl 4-(4-(4-hydroxyphenyl)-N-methyl-1H-imidazole-1-carboxamido)piperidine-1-carboxylate] |  | 
114.2 % of control | 65.4 % of control | COc1ccc(-c2cn(C(=O)N(C)C3CCNCC3)cn2)cc1N [Compound no. 450, 4-(3-amino-4-methoxyphenyl)-N-methyl-N-(piperidin-4-yl)-1H-imidazole-1-carboxamide] |  | 
3.1 % of control | 3 % of control | Br.CN(C(=O)n1cnc(-c2ccc(O)c(F)c2)c1)C1CCN(Cc2ccccc2)CC1 [Compound no. 454, N-(1-benzylpiperidin-4-yl)-4-(3-fluoro-4-hydroxyphenyl)-N-methyl-1H-imidazole-1-carboxamide hydrobromide] |  | 
 |  | CN(C(=O)n1cnc(-c2cccnc2)c1)C1CCN(S(C)(=O)=O)CC1 [Compound no. 533, N-methyl-N-(1-(methylsulfonyl)piperidin-4-yl)-4-(pyridin-3-yl)-1H-imidazole-1-carboxamide] | 12 % of control | 0.2 % of control

SMILES | In Vivo BRh 3 mg·kg 8 h (remaining FAAH activity, % of control) (FAAH [1]) | In Vivo LVh 3 mg·kg 8 h (remaining FAAH activity, % of control) (FAAH [2]) | In Vivo BRh 3 mg · kg · 8 h (remaining FAAH activity) (FAAH [1]) | In Vivo LVh 3 mg · kg · 8 h (remaining FAAH activity) (FAAH [2])
COc1ccc(-c2cn(C(=O)N(C)C3CCCCC3)cn2)cc1-c1nn[nH]n1 [Compound no. 438, N-cyclohexyl-4-(4-methoxy-3-(2H-tetrazol-5-yl)phenyl)-N-methyl-1H-imidazole-1-carboxamide] | 92.4 % of control | 6.1 % of control |  | 
